# Experimental data: patent publication US20080161248A1, “Methods and Compositions for Therapeutic Treatment” (priority 2006, published 2008)
# Columns and labels:
# [1] = Pharmacokinetics of FK 506 i.v. with LNS 0694 i.p. in Lewis rats; assay type: in vivo, rat; settings: male Lewis rats; FK 506 1 mg/kg i.v.; LNS 0694 i.p. different doses
# Method: (§1) Animals: 8-9 weeks-old Lewis and Brown Norway male rats were obtained from Charles River Laboratories. General procedures for animal care and housing was in accordance with the National Research Council (NRC) Guide for the Care and Use of Laboratory Animals (1996) and the Animal Welfare Standards incorporated in 9 CFR Part 3, 1991.
# Treatment: Lewis rats were treated as described in example 3. Subsets of 3 Lewis rats per group were used for blood sampling at each time point (Groups 2-5) at described in the table below.
# Plasma Blood Sample Collection: Whole blood was collected from the retro-orbital sinus under 60:40 CO2:O2 anesthesia using EDTA as the anticoagulant. Sample collection was performed at 9 time points: 5, 15, and 30 min and 1, 2, 4, 6, 8, & 24 hr after administration of FK 506. Three samples were collected from each rat per group (Groups 2-5). The first 2 samples were collected under anesthesia, after which the animal regained consciousness and was retained until the next collection interval. […]
# Drug levels were determined in collected whole blood samples using a bioanalytical method developed to detect parent drug levels.
# Results: The pharmacokinetics parameters of FK 506 were determined in male Lewis rats after 1 mg/kg i.v. administration alone or in combination with i.p, administration of different doses of LNS 0694 (See FIG. 16).
# [2] = tested on: mouse spleen cells, response to LPS; experiment: In vitro LPS assay on spleen cells; assay type: cell-based; settings: high ([…]10^6 cells/well) and low (8×10^5 cells/well) cell concentration
# Text: as §1
# (§2) Spleens were collected for use in in vitro Con A and LPS assays.
# FIGS. 10 and 11 show the effect of quercetin and tacrolimus on response of mouse spleen cells to LPS at a high (1.6×10^6 cells/well) and low (8×10^5 cells/well) cell concentration, respectively.
# [3] = tested on: LEW responder splenocytes with irradiated BN stimulators (lymphocyte proliferation); experiment: Mixed lymphocyte reaction (MLR) with spleen cells of treated Lewis rats; assay type: cell-based, rat; settings: LNS 0694 50, 150, 300 mg/kg i.p. 30 minutes prior to FK506 1 mg/kg i.v.
# Method: Animals: 8-9 weeks-old Lewis and Brown Norway male rats were obtained from Charles River Laboratories. […] Treatment: Lewis rats were treated with different single doses of LNS 0694i.p. 30 minutes prior to single i.v. injections of tacrolimus at a concentration of 1 mg/kg as described in the table below. Spleens were collected at 4 hr after administration of FK506 for use in the in vitro mixed lymphocyte reaction (MLR) and Con A assays. […] Mixed lymphocyte reactions: A single cell suspension of the spleen of each rat on test (LEW, responder) was prepared with a Dounce homogenizer and wash-medium. The cell suspension was depleted of red blood cells (treatment with NH4CL/Tris buffer) and washed twice with wash medium before resuspending in complete medium (CM; […] A single cell suspension of splenocytes from five Brown Norway rats (BN, stimulators) was prepared with the same method. The BN splenocytes were pooled and irradiated with 1,500-2,000 rad (cesium source) before use. Varying numbers of responder cells were mixed with a constant number of stimulators (105) in 96-well, U-bottom cell culture plates to give a final responder:stimulator (R:S) ratio of 10:1,5: 1, 1:1 and 0.5:1 in 200 μl CM. […] The results of the MLR assays [thymidine incorporation as counts per minute (CPM)] are expressed as mean ±SD.
# [4] = Pharmacokinetics of FK506 i.v. with Quercetin i.p. in rats; assay type: in vivo, rat
# Method: as §1, with “weeks-old rats, e.g.,” for “weeks-old”, “rats, can be used.” for “rats were obtained from Charles River Laboratories.”, “are” for “was”
# Treatment: Rats are treated as i.v with FK506 and i.p. with Quercetin at two different concentrations, 500 mg/kg or 200 mg/kg. Subsets of 3 Lewis rats per group are used for blood sampling at each time point (Groups 2-5) at described in the table below.
# Plasma Blood Sample Collection: Whole blood is collected from the retro-orbital sinus under 60:40 CO2:O2 anesthesia using EDTA as the anticoagulant. Sample collection is performed at 9 time points: 5, 15, and 30 min and 1, 2, 4, 6, 8, & 24 hr after administration of FK 506. Three samples were collected from each rat per group (Groups 2-5). The first 2 samples are collected under anesthesia, after which the animal regained consciousness and is retained until the next collection interval. The third/last sample is also collected under anesthesia, however the animal is euthanatized prior to anesthetic recovery.
# Whole blood samples are placed on dry ice after collection and stored frozen at […] (±10° C.) until analysis.
# Drug levels are determined in collected samples using bioanalytical methods developed to detect parent drug levels known in the art.
# [5] = in vivo; cited from earlier work
# [6] = tested on: LEW responders activated with Con A (lymphocyte proliferation); experiment: Con A stimulated proliferation of spleen cells of treated Lewis rats; assay type: cell-based, rat; settings: LNS 0694 i.p. 30 minutes prior to FK506 1 mg/kg i.v.
# Method: Animals: 8-9 weeks-old Lewis and Brown Norway male rats were obtained from Charles River Laboratories. […] Treatment: Lewis rats were treated with different single doses of LNS 0694i.p. 30 minutes prior to single i.v. injections of tacrolimus at a concentration of 1 mg/kg as described in the table below. Spleens were collected at 4 hr after administration of FK506 for use in the in vitro mixed lymphocyte reaction (MLR) and Con A assays. […] Varying numbers of responder cells were mixed with a constant number of stimulators (105) in 96-well, U-bottom cell culture plates to give a final responder:stimulator (R:S) ratio of 10:1,5: 1, 1:1 and 0.5:1 in 200 μl CM. Control wells for each cell suspension contained 10^5 responders alone in medium and 10^5 pooled, irradiated stimulators alone in medium (separate wells). For a positive proliferative response, each responder (10^5) was treated with 2.5 μg/ml Con A. […] Each well was pulsed with 1 μCi tritiated thymidine for 18±2 hours before automatic harvesting and analysis in a liquid scintillation counter.
# [7] = tested on: mouse spleen cells, response to Con A; experiment: In vitro Con A assay on spleen cells; assay type: cell-based
# Text: as §1, §2
# Results: FIGS. 8 and 9 show the effect of quercetin and tacrolimus on response of mouse spleen cells to Con A at a high (1.6×10^6 cells/well) and low (8×10^5 cells/well) cell concentration, respectively.
# Spleen cells were treated with Con A in the presence of vehicle, tacrolimus, quercetin or two different concentrations of tacrolimus (10^−8.2 and 10^−8.5 M) and increasing doses of quercetin at a high cell concentration (FIG. 14) or at a low cell concentration (FIG. 15). […] There was no significance difference between the effect of quercetin on tacrolimus induced cell suppression in vitro at the different concentrations used for quercetin.
# mdr1a knockout mice = settings: cited from earlier work
# [8] = higher 200 mg/kg quercetin dose i.p.
SMILES,effect on peripheral bioavailability of FK506 [1],effect on response of spleen cells to LPS (proliferation) [2],effect on FK 506 inhibitory effect in MLR [3],effect on peripheral bioavailability of FK506 ([4]; Quercetin i.p. different doses),"effect on calculated AUC (0-infinity) of FK 506 ([4]; Quercetin i.p. different doses, vs control group)","effect on Cmax of FK 506 [4, 8]","effect on Vd of FK 506 [4, 8]","effect on clearance of FK 506 [4, 8]",serum half-life [5] [h],"effect on FK 506 inhibitory effect, responders activated with Con A [6]","effect on tacrolimus induced cell suppression in vitro ([7]; Con A, tacrolimus 10^-8.2 and 10^-8.5 M, increasing doses of quercetin)",effect on response of spleen cells to Con A (proliferation) ([7]; high ([…]10^6 cells/well) and low (8×10^5 cells/well) cell concentration),incidence of fetal cleft palate (mdr1a knockout mice) [%]
"O=c1c(O)c(-c2ccc(O)c(O)c2)oc2cc(O)cc(O)c12 [Quercetin, quercetin]",increases the peripheral bioavailability of FK506 in a dose dependent manner,no significant effect,increased FK 506 inhibitory effect in a dose-dependent manner,increases the peripheral bioavailability of FK506 in a dose dependent manner,increases,increase,decrease,decrease,19 to 25,increased FK 506 inhibitory effect,did not impair,no significant effect,–
CC[C@H](C)[C@H]1O[C@]2(C=C[C@@H]1C)C[C@@H]1C[C@@H](C/C=C(\C)[C@@H](O[C@H]3C[C@H](OC)[C@@H](O[C@H]4C[C@H](OC)[C@@H](O)[C@H](C)O4)[C@H](C)O3)[C@@H](C)/C=C/C=C3\CO[C@@H]4[C@H](O)C(C)=C[C@@H](C(=O)O1)[C@]34O)O2 [avermectin],–,–,–,–,–,–,–,–,–,–,–,–,100
